pEC50, pIC50: −log10 of the molar value. Entries after “also recorded” stand apart in the source; their conditions may differ. Like-named read-outs stand apart in the source and are kept apart here.
Tests used:
HB11;19 = experiment: Cell proliferation assay; assay type: cell-based; conditions: HB11;19 (MLL-ENL fusion), ∼2 weeks
AF9 YEATS domain = AF9 YEATS domain (Homo sapiens, UniProt P42568); experiment: AF9 YEATS HTRF; assay type: binding
MV4;11 cells [1] = experiment: Quant-seq 3′ mRNA sequencing in MV4; assay type: cell-based, human; conditions: MV4;11, 4 h
HL-60 = experiment: Cell proliferation assay; assay type: cell-based; conditions: HL-60 (MLL wild-type AML), ENL-insensitive
AF9(YEATS)-HiBiT = AF9(YEATS)-HiBiT (Homo sapiens, UniProt P42568); experiment: AF9; assay type: cell-based
Chain of AF9(YEATS)-HiBiT (P42568 1-138 limits assumed): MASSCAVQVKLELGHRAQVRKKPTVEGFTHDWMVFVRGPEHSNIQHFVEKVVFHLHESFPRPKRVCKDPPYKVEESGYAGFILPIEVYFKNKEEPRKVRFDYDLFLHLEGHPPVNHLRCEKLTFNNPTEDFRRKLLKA

YEATS4 YEATS domain = YEATS4 YEATS domain (Homo sapiens, UniProt O95619); experiment: SPR, biotinylated YEATS4 YEATS; assay type: binding
Chain of YEATS4 YEATS domain (O95619 13-158): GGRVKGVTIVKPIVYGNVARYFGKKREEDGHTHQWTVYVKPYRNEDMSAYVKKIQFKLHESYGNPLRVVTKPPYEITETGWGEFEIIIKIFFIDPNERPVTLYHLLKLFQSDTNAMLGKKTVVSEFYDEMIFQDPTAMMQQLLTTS

MOLM-13 = experiment: Cell proliferation assay; assay type: cell-based; conditions: MOLM-13 (MLL-AF9 AML), ∼2 weeks
786-O = experiment: Cell proliferation assay; assay type: cell-based; conditions: 786-O (renal cell carcinoma), 10 μM
MV4;11 cells [2] = experiment: 72 h viability assay; assay type: cell-based, human; conditions: MV4;11, 72 h
[3] = biological target: YSK4 (also known as MAP3K19) (Homo sapiens, UniProt Q56UN5); experiment: KdELECT affinity determination of scanMAX hits; assay type: binding
Chain of YSK4 (also known as MAP3K19) (Q56UN5 whole entry): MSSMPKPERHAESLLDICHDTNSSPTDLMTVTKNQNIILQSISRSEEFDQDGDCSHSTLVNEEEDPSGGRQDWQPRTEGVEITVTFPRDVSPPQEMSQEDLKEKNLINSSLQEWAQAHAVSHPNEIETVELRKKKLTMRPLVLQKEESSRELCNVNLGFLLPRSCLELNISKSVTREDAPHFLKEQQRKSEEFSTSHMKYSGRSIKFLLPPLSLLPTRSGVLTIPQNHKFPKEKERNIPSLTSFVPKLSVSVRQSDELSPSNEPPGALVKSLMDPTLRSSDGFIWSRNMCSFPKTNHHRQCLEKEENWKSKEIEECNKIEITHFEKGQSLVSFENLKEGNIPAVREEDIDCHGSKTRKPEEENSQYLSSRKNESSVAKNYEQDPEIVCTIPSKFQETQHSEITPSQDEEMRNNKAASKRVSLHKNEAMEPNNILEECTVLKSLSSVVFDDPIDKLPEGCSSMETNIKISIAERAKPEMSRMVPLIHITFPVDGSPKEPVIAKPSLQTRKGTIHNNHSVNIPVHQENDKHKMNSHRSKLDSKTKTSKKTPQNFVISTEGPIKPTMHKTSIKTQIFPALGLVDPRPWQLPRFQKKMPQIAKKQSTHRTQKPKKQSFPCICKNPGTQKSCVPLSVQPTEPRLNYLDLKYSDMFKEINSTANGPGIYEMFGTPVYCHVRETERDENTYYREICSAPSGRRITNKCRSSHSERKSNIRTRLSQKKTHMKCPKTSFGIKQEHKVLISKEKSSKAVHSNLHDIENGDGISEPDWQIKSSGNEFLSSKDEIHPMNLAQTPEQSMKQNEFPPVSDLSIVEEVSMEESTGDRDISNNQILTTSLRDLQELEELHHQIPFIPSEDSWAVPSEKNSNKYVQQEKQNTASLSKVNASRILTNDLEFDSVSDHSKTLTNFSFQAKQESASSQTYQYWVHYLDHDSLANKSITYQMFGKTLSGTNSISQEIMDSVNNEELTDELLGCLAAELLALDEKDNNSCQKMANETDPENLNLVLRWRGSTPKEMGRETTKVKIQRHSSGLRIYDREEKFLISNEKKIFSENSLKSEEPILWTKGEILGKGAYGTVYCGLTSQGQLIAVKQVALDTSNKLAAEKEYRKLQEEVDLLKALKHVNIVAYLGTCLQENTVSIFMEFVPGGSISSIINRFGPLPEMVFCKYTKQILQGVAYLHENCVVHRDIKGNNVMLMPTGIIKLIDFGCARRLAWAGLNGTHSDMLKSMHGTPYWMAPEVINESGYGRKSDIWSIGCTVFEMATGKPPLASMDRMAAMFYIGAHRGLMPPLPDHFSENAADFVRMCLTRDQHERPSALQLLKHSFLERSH

MOLT-4 = experiment: Cell proliferation assay; assay type: cell-based; conditions: MOLT-4 (T-cell ALL), up to 10 μM
OCI/AML-2 = experiment: Cell proliferation assay; assay type: cell-based; conditions: OCI/AML-2 (MLL-AF6 AML), ∼2 weeks
ENL YEATS domain [4] = biological target: T1, ENL YEATS domain (Homo sapiens, UniProt Q03111); conditions: 1 μM
T1 sequence (Q03111 1-148): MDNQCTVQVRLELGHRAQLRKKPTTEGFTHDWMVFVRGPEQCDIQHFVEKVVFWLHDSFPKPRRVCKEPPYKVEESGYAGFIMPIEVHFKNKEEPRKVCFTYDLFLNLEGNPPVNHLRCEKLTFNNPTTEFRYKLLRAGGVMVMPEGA

32 bromodomains = experiment: BROMOscan profiling; conditions: 10 μM
JURKAT = experiment: Cell proliferation assay; assay type: cell-based; conditions: JURKAT (T-cell ALL), ENL-insensitive
MV4;11 cells [5] = experiment: Cell cycle analysis; assay type: cell-based, human; conditions: MV4;11, 72 h
MV4;11 = experiment: Cell proliferation assay; assay type: cell-based, human; conditions: MV4;11 (MLL-AF4 AML), ∼2 weeks
ENL [6] = biological target: T2, ENL (Homo sapiens, UniProt Q03111); experiment: ENL ChIP-qPCR / ChIP-seq in MV4
T2 sequence (Q03111 1-559): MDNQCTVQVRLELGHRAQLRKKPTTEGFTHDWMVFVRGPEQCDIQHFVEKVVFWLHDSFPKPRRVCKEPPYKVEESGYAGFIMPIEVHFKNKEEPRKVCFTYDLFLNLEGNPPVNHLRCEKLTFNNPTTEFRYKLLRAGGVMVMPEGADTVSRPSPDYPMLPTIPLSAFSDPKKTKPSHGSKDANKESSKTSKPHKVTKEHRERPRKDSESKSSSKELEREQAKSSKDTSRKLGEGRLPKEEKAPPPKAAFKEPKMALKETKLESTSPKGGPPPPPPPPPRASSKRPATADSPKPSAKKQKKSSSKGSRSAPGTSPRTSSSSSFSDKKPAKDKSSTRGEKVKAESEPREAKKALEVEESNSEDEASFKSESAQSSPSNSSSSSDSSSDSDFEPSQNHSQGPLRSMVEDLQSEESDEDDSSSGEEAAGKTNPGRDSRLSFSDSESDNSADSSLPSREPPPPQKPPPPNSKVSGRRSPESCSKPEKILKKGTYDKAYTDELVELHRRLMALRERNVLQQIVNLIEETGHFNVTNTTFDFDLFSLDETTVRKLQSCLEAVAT

MV4;11 cells [7] = experiment: qRT-PCR transcript abundance in MV4; assay type: cell-based, human
BRD4 BD1 = BRD4 BD1 (Homo sapiens, UniProt O60885); experiment: BRD4 BD1 HTRF counter-screen; assay type: binding
468 kinases = experiment: KINOMEscan profiling; conditions: 10 μM, 468 kinases tested
YEATS2 YEATS domain = YEATS2 YEATS domain (Homo sapiens, UniProt Q9ULM3); experiment: Modified histone peptide array, YEATS2 YEATS; conditions: 10 and 50 μM
Chain of YEATS2 YEATS domain (Q9ULM3 200-345 limits assumed): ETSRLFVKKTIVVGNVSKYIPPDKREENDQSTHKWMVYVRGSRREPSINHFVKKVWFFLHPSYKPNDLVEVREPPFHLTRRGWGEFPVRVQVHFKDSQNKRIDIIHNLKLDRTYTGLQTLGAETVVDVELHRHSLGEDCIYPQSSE

ENL(YEATS)-HiBiT = ENL(YEATS)-HiBiT (Homo sapiens, UniProt Q03111); experiment: ENL; assay type: cell-based
ENL YEATS domain [8] = biological target: T1, ENL YEATS domain; experiment: ENL-H3K27cr HTRF
MV4;11 cells [9] = experiment: TMT-based whole proteome analysis of MV4; assay type: cell-based, human; conditions: 10 μM
ENL [10] = biological target: T2, ENL; experiment: ENL degradation by immunoblot; assay type: cell-based; conditions: for DC50: read-out: ENL DC50, 4 h treatment
AF9 (V5) = AF9 (V5) (Homo sapiens, UniProt P42568); experiment: AF9-V5 degradation by immunoblot in MOLM-13 cells; assay type: cell-based; conditions: 4 h treatment
Chain of AF9 (V5) (P42568 whole entry): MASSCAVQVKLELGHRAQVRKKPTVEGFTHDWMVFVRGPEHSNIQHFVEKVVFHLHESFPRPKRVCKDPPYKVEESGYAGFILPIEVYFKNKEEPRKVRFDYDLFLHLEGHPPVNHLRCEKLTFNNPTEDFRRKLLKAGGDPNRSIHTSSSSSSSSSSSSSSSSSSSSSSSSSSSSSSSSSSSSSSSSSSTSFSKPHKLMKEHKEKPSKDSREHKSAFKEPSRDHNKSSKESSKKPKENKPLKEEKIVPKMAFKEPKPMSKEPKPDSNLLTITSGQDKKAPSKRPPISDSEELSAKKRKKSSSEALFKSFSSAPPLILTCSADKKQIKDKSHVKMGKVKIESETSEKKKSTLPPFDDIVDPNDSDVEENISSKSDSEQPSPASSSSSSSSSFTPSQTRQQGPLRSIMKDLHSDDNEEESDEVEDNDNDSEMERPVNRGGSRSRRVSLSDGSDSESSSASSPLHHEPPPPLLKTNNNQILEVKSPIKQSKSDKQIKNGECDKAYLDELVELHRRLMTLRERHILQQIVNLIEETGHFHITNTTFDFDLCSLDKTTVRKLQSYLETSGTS

[11] = ENL-H3K27cr HTRF IC50, purified compound

Chain of AF9 YEATS domain (P42568 1-138 limits assumed): as the sequence (P42568 1-138 limits assumed) above

## O=C(NC1CCC1)c1ccc2nc(-c3cccc(NS(=O)(=O)NCCN4CCCCC4)c3)cn2c1 [SR-0813, N-Cyclobutyl-2-(3-((N-(2-(piperidin-1-yl)ethyl)sulfamoyl)amino)phenyl)imidazo[1,2-a]pyridine-6-carboxamide]
HB11;19
  effect on cell growth: inhibited the growth
AF9 YEATS domain
  pIC50: 6.51
MV4;11 cells [1]
  expression of ENL target genes (3′ mRNA-seq): strikingly selective suppression of ENL target genes
  global gene expression (3′ mRNA-seq): did not elicit global changes in gene expression
HL-60
  effect on cell growth: unaffected; also recorded: muted antiproliferative activity
AF9(YEATS)-HiBiT
  pEC50: 7.12
YEATS4 YEATS domain
  binding to the YEATS4 YEATS domain by SPR: virtually no binding
MOLM-13
  effect on cell growth: inhibited the growth
786-O
  effect on cell growth: neither the T-cell ALL cell line, MOLT-4, nor the renal cell carcinoma cell line, 786-O, were affected
MV4;11 cells [2]
  effect on viability: minimal effects
[3]
  lower affinity for YSK4 than for ENL YEATS: over 100 fold
MOLT-4
  effect on cell growth: neither the T-cell ALL cell line, MOLT-4, nor the renal cell carcinoma cell line, 786-O, were affected
OCI/AML-2
  effect on cell growth: inhibited the growth
ENL YEATS domain [4]
  ENL recognition of acetyllysine on histone peptide arrays: completely inhibited
32 bromodomains
  bromodomain off targets (BROMOscan, bromoMAX): not a single bromodomain off target was identified
JURKAT
  effect on cell growth: unaffected; also recorded: muted antiproliferative activity
MV4;11 cells [5]
  cell cycle distribution: decrease in the number of cells at the G2 stage of the cell cycle
MV4;11
  effect on cell growth: inhibited the growth
ENL [6]; MV4;11
  ENL ChIP-seq signal genome-wide: bulk displacement of ENL from chromatin
ENL [6]; MV4;11, 4 h
  ENL ChIP-qPCR enrichment at ENL binding sites (HOXA10 gene body, MYB promoter): dose-dependent eviction of ENL
MV4;11 cells [7]; MV4;11
  abundance of the ITGAM transcript (CD11b): increased abundance
MV4;11 cells [7]; MV4;11, from 3 h to at least 3 days, 1 and 10 μM
  transcript abundance of HOXA9, MEIS1 and MYC: downregulated
MV4;11 cells [7]; MV4;11, most prominent at 10 μM
  transcript abundance of HMGCR and HMGCS1 (SREBP targets, off-target effect): upregulation
BRD4 BD1
  activity against BRD4 BD1 by HTRF: inactive
468 kinases
  number of kinases identified as potential off targets (KINOMEscan, scanMAX): 4
YEATS2 YEATS domain
  YEATS2 recognition of acetyllysine on histone peptide arrays: minimal effects

## CC(C)NC(=O)c1ccc2nc(-c3cccc(NS(=O)(=O)NCCc4c[nH]cn4)c3)cn2c1 [compound 7]
ENL(YEATS)-HiBiT
  pEC50: 5.82
ENL YEATS domain [8]; ENL YEATS HTRF IC50, purified compound
  pIC50: 6.64
ENL YEATS domain [8]; [11]
  pIC50: 6.63
ENL YEATS domain [8]; HTRF IC50 ratio
  improvement in potency compared to the initial screening hit: 30 fold

## CC(C)N(C)C(=O)c1ccc2nc(-c3ccccc3)cn2c1 [compound 2, N-Isopropyl-N-methyl-2-phenylimidazo[1,2-a]pyridine-6-carboxamide]
ENL(YEATS)-HiBiT
  pEC50: < 4.70
ENL YEATS domain [8]
  activity against ENL YEATS: complete ablation of activity
ENL YEATS domain [8]; [11]
  pIC50: < 4.30

## O=C(COc1cccc2c1C(=O)N(C1CCC(=O)NC1=O)C2=O)NCCOCCOCCNS(=O)(=O)Nc1cccc(-c2cn3cc(C(=O)NC4CCC4)ccc3n2)c1 (stereo not drawn) [SR-1114, N-Cyclobutyl-2-(3-((N-(2-(2-(2-(2-((2-(2,6-dioxopiperidin-3-yl)-1,3-dioxoisoindolin-4-yl)oxy)acetamido)ethoxy)ethoxy)ethyl)sulfamoyl)amino)phenyl)imidazo[1,2-a]pyridine-6-carboxamide]
MV4;11 cells [9]
  off-target degradation of IKZF1: weak off-target degradation
MV4;11 cells [9]; 4 and 16 h
  change in ENL abundance across the proteome: strongest change in abundance across the proteome
MV4;11 cells [9]; 16 h
  abundance of ENL target genes (HOXA10, MYC, MYB, FLT3, ZEB2, SATB1): preferential suppression of multiple ENL target genes
  abundance of myeloid differentiation marker CD11b: increased the abundance
ENL [10]; 10 μM
  time ENL degradation is sustained by a single dose: 24 h
ENL [10]; 10 μM, MV4;11 cells
  time to maximal ENL degradation: ≤ 4 h
ENL [10]; MOLM-13 cells
  DC50: 0.311 µM
ENL [10]; OCI/AML-2 cells
  DC50: 1.65 µM
AF9 (V5)
  degradation of exogenously expressed AF9-V5: degraded
